The molecules below were run against human TrkA receptor (Homo sapiens (Human), UniProt P04629) (assay: DiscoverX PathHunter TrkA functional assay (NGF-stimulated U2OS cells)). Conditions: U2OS cells expressing human TrkA-PK, Shc1-EA and p75NTR; compound 1 h, then NGF at ~80% of maximal response for 3 h; luminescence.
Type: cell-based

human TrkA receptor, sequence (P04629 33-796): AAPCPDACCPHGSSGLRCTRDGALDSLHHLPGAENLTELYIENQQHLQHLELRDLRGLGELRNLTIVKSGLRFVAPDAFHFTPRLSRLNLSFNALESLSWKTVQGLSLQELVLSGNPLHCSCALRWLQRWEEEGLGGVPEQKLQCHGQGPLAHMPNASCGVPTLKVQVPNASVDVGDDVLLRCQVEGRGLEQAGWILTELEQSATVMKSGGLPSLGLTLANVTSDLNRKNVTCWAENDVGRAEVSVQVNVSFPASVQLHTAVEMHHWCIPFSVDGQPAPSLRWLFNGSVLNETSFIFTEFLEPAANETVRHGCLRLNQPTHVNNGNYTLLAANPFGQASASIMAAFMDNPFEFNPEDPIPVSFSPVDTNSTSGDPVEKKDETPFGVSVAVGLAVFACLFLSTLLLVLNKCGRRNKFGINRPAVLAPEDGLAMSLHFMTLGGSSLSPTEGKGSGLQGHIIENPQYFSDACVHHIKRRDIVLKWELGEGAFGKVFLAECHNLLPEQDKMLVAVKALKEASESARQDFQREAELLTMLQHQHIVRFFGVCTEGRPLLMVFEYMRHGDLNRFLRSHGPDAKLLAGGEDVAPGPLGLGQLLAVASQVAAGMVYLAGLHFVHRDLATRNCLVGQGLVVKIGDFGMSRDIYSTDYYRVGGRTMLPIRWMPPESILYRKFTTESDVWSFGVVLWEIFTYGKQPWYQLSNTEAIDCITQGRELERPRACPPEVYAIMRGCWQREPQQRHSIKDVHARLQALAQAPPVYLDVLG

Q: For Cn1ccc(-c2cc(C(=O)Nc3cnc(CN4CCCCCC4=O)nc3-c3ccccc3)c(F)cc2C(F)(F)F)n1 [Example 221, 2-fluoro-5-(1-methyl-1H-pyrazol-3-yl)-N-(2-((2-oxoazepan-1-yl)methyl)-4-phenylpyrimidin-5-yl)-4-(trifluoromethyl)benzamide], which IC50 is on record?
A: 1.9 nM

Q: For Cn1ccc(-c2cc(C(=O)Nc3cc4c(nc3-c3ccccc3)CC(=O)NC4)c(F)cc2C(F)(F)F)n1 [Example 153, 2-fluoro-5-(1-methyl-1H-pyrazol-3-yl)-N-(7-oxo-2-phenyl-5,6,7,8-tetrahydro-1,6-naphthyridin-3-yl)-4-(trifluoromethyl)benzamide], which IC50 is on record?
A: 6.8 nM

Q: Cn1ccc(-c2cc(C(=O)Nc3cc4c(nc3-c3ccccc3)CNC(=O)C4)ccc2C(F)(F)F)n1 [Example 142, 3-(1-Methyl-1H-pyrazol-3-yl)-N-(6-oxo-2-phenyl-5,6,7,8-tetrahydro-1,7-naphthyridin-3-yl)-4-(trifluoromethyl)benzamide] was tested. Which IC50 did it give?
A: 4.7 nM

Q: CN(C)C(=O)c1cnc(-c2ccccc2)c(NC(=O)c2cc(-c3ccn(C)n3)c(C(F)(F)F)cc2F)c1 [Example 82, 5-(2-Fluoro-5-(1-methyl-1H-pyrazol-3-yl)-4-(trifluoromethyl)benzamido)-N,N-dimethyl-6-phenylnicotinamide] was tested. Which IC50 did it give?
A: 11 nM

Q: For CC(=O)N1CCc2nc(-c3ccccc3)c(NC(=O)c3cc(-c4ccn(C)n4)c(C(F)(F)F)cc3Cl)cc2C1 [Example 151, N-(6-acetyl-2-phenyl-5,6,7,8-tetrahydro-1,6-naphthyridin-3-yl)-2-chloro-5-(1-methyl-1H-pyrazol-3-yl)-4-(trifluoromethyl)benzamide], which IC50 is on record?
A: 0.54 nM

Q: How did the IC50 turn out when Cn1ccc(-c2cc(C(=O)Nc3cnc(C(C)(C)C(=O)O)nc3-c3ccccc3)c(F)cc2C(F)(F)F)n1 [Example 121, 2-(5-(2-fluoro-5-(1-methyl-1H-pyrazol-3-yl)-4-(trifluoromethyl)benzamido)-4-phenylpyrimidin-2-yl)-2-methylpropanoic acid] was run?
A: 8 nM

Q: For Cc1cc(-c2nc(C)ncc2NC(=O)c2ccc(C(F)(F)F)c(-c3nc(C)cs3)c2)[nH]n1 [Example 18, N-[2-methyl-4-(3-methyl-1H-pyrazol-5-yl)pyrimidin-5-yl]-3-(4-methyl-1,3-thiazol-2-yl)-4-(trifluoromethyl)benzamide], which IC50 is on record?
A: 330 nM

Q: How did the IC50 turn out when NC(=O)Cc1ccc(NC(=O)c2cc(-c3ccccn3)c(C(F)(F)F)cc2F)c(-c2ccccc2)n1 [Example 124, N-(6-(2-amino-2-oxoethyl)-2-phenylpyridin-3-yl)-2-fluoro-5-(pyridin-2-yl)-4-(trifluoromethyl)benzamide] was run?
A: 8.8 nM

Q: How did the IC50 turn out when Cn1ccc(-c2cc(C(=O)Nc3cc(C(N)=O)nnc3-c3ccccc3)c(F)cc2C(F)(F)F)n1 [Example 94, 5-(2-fluoro-5-(1-methyl-1H-pyrazol-3-yl)-4-(trifluoromethyl)benzamido)-6-phenylpyridazine-3-carboxamide] was run?
A: 9.3 nM

Q: Cn1ccc(-c2cc(C(=O)Nc3ccc(CNC(=O)[C@@H]4CCC(=O)N4)nc3-c3ccccc3)c(F)cc2C(F)(F)F)n1 [Example 57, (S)-N-((5-(2-fluoro-5-(1-methyl-1H-pyrazol-3-yl)-4-(trifluoromethyl)benzamido)-6-phenylpyridin-2-yl)methyl)-5-oxopyrrolidine-2-carboxamide] was tested. Which IC50 did it give?
A: 1.1 nM

Q: Cn1ccc(-c2cc(C(=O)Nc3cc(S(C)(=N)=O)cnc3-c3ccccc3)c(F)cc2C(F)(F)F)n1 (stereo not shown) [Example 195, 2-fluoro-5-(1-methyl-1H-pyrazol-3-yl)-N-(5-(S-methylsulfonimidoyl)-2-phenylpyridin-3-yl)-4-(trifluoromethyl)benzamide] was tested. Which IC50 did it give?
A: 2.8 nM

Q: With Cn1ccc(-c2cc(C(=O)Nc3cnc(CC4NC(=O)NC4=O)nc3-c3ccccc3)ccc2C(F)(F)F)n1 (single isomer, unassigned) [Example 190, (R or S)—N-(2-(2,5-Dioxoimidazolidin-4-yl)methyl)-4-phenylpyrimidin-5-yl)-3-(1-methyl-1H-pyrazol-3-yl)-4-(trifluoromethyl)benzamide] as the molecule, how does the IC50 read?
A: 1.8 nM

Q: How did the IC50 turn out when Cn1ccc(-c2cnc(N3CCC[C@@H]3CO)c(NC(=O)c3cc(-c4ncccn4)c(C(F)(F)F)cc3F)c2)n1 [Example 138, (R)-2-fluoro-N-(2-(2-(hydroxymethyl)pyrrolidin-1-yl)-5-(1-methyl-1H-pyrazol-3-yl)pyridin-3-yl)-5-(pyrimidin-2-yl)-4-(trifluoromethyl)benzamide] was run?
A: 27 nM

Q: How did the IC50 turn out when Cn1ccc(-c2cc(C(=O)Nc3cnc(CN4CC(CO)OC4=O)nc3-c3ccccc3)c(F)cc2C(F)(F)F)n1 (single isomer, unassigned) [Example 228, (R or S)-2-fluoro-N-(2-((5-(hydroxymethyl)-2-oxooxazolidin-3-yl)methyl)-4-phenylpyrimidin-5-yl)-5-(1-methyl-1H-pyrazol-3-yl)-4-(trifluoromethyl)benzamide] was run?
A: 0.66 nM

Q: How did the IC50 turn out when Cn1ccc(-c2cc(C(=O)Nc3cnc(C(N)C(N)=O)nc3-c3ccccc3)c(F)cc2C(F)(F)F)n1 (stereo not shown) [Example 130, N-(2-(1,2-Diamino-2-oxoethyl)-4-phenylpyrimidin-5-yl)-2-fluoro-5-(1-methyl-1H-pyrazol-3-yl)-4-(trifluoromethyl)benzamide] was run?
A: 4.6 nM

Q: How did the IC50 turn out when Cc1cccc(-c2nc(C)ncc2NC(=O)c2ccc(C(F)(F)F)c(-c3ccn(C)n3)c2)c1 [Example 32, N-[2-methyl-4-(3-methylphenyl)pyrimidin-5-yl]-3-(1-methyl-1H-pyrazol-3-yl)-4-(trifluoromethyl)benzamide] was run?
A: 8.3 nM

Q: How did the IC50 turn out when C[C@H](O)C(=O)NCc1ncc(NC(=O)c2cc(-c3ccn(C)n3)c(C(F)(F)F)cc2F)c(-c2ccccc2)n1 [Example 48] was run?
A: 1.1 nM

Q: CNC(=O)c1cnc(-c2ccccc2)c(NC(=O)c2cc(-c3ccn(C)n3)c(C(F)(F)F)cc2F)c1 [Example 83, 5-(2-fluoro-5-(1-methyl-1H-pyrazol-3-yl)-4-(trifluoromethyl)benzamido)-N-methyl-6-phenylnicotinamide] was tested. Which IC50 did it give?
A: 1.1 nM

Q: For O=C(Nc1cc(Oc2ccccn2)cnc1-c1ccccc1)c1cc(-c2ncccn2)c(C(F)(F)F)cc1F [Example 167, 2-fluoro-N-(2-phenyl-5-(pyridin-2-yloxy)pyridin-3-yl)-5-(pyrimidin-2-yl)-4-(trifluoromethyl)benzamide], which IC50 is on record?
A: 24 nM

Q: How did the IC50 turn out when Cn1ccc(-c2cc(C(=O)Nc3cnc(Cn4ccc(=O)[nH]c4=O)nc3-c3ccccc3)c(F)cc2C(F)(F)F)n1 [Example 226, N-(2-((2,4-dioxo-3,4-dihydropyrimidin-1(2H)-yl)methyl)-4-phenylpyrimidin-5-yl)-2-fluoro-5-(1-methyl-1H-pyrazol-3-yl)-4-(trifluoromethyl)benzamide] was run?
A: 0.35 nM

Q: How did the IC50 turn out when Cn1ccc(-c2cc(C(=O)Nc3cnc4c(c3-c3ccccc3)CCNC4=O)ccc2C(F)(F)F)n1 [Example 159, 3-(1-methyl-1H-pyrazol-3-yl)-N-(8-oxo-4-phenyl-5,6,7,8-tetrahydro-1,7-naphthyridin-3-yl)-4-(trifluoromethyl)benzamide] was run?
A: 260 nM

Q: For Cn1ccc(-c2cc(C(=O)Nc3cnc(CC4CC(=O)NC4=O)nc3-c3ccccc3)c(F)cc2C(F)(F)F)n1 (stereo not shown) [Example 201, N-(2-((2,5-Dioxopyrrolidin-3-yl)methyl)-4-phenylpyrimidin-5-yl)-2-fluoro-5-(1-methyl-1H-pyrazol-3-yl)-4-(trifluoromethyl)benzamide], which IC50 is on record?
A: 2.8 nM

Q: With Cn1ccc(-c2cc(C(=O)Nc3cnc(CNC(=O)CO)cc3-c3ccccc3)ccc2C(F)(F)F)n1 [Example 55, N-(6-((2-hydroxyacetamido)methyl)-4-phenylpyridin-3-yl)-3-(1-methyl-1H-pyrazol-3-yl)-4-(trifluoromethyl)benzamide] as the molecule, how does the IC50 read?
A: 14 nM

Q: CC(=O)NCc1ncc(NC(=O)c2ccc(C(F)(F)F)c(-c3ccn(C)n3)c2)c(-c2ccccc2)n1 [Example 49, N-(2-(acetamidomethyl)-4-phenylpyrimidin-5-yl)-3-(1-methyl-1H-pyrazol-3-yl)-4-(trifluoromethyl)benzamide] was tested. Which IC50 did it give?
A: 3.6 nM

Q: C[C@H](O)C(=O)NCc1ccc(NC(=O)c2cc(-c3ccn(C)n3)c(C(F)(F)F)cc2F)c(-c2ccccc2)n1 [Example 56, (S)-2-fluoro-N-(6-((2-hydroxypropanamido)methyl)-2-phenylpyridin-3-yl)-5-(1-methyl-1H-pyrazol-3-yl)-4-(trifluoromethyl)benzamide] was tested. Which IC50 did it give?
A: 0.45 nM

Q: For Cn1ccc(-c2cc(C(=O)Nc3ccc(C4CN(C(=O)CN)C4)nc3-c3ccccc3)c(F)cc2C(F)(F)F)n1 [Example 207, 2-fluoro-N-(6-(1-glycylazetidin-3-yl)-2-phenylpyridin-3-yl)-5-(1-methyl-1H-pyrazol-3-yl)-4-(trifluoromethyl)benzamide], which IC50 is on record?
A: 1.1 nM

Q: How did the IC50 turn out when C[C@H](O)C(=O)N(C)Cc1ccc(NC(=O)c2cc(-c3ccn(C)n3)c(C(F)(F)F)cc2F)c(-c2ccccc2)n1 [Example 72, (S)-2-fluoro-N-(6-((2-hydroxy-N-methylpropanamido)methyl)-2-phenylpyridin-3-yl)-5-(1-methyl-1H-pyrazol-3-yl)-4-(trifluoromethyl)benzamide] was run?
A: 0.57 nM

Q: Which IC50 does the source give for Cn1ccc(-c2cc(C(=O)Nc3cnc(CCN4CCOCC4)nc3-c3ccccc3)ccc2C(F)(F)F)n1 [Example 38, 3-(1-methyl-1H-pyrazol-3-yl)-N-(2-(2-morpholinoethyl)-4-phenylpyrimidin-5-yl)-4-(trifluoromethyl)benzamide] here?
A: 25 nM

Q: For Cn1ccc(-c2cc(C(=O)Nc3cc4c(nc3-c3ccccc3)CNC4=O)c(F)cc2C(F)(F)F)n1 [Example 161, 2-fluoro-5-(1-methyl-1H-pyrazol-3-yl)-N-(5-oxo-2-phenyl-6,7-dihydro-5H-pyrrolo[3,4-b]pyridin-3-yl)-4-(trifluoromethyl)benzamide], which IC50 is on record?
A: 0.38 nM

Q: For Cn1ccc(-c2cc(C(=O)Nc3cnc(NC(=O)CO)nc3-c3ccccc3)c(F)cc2C(F)(F)F)n1 [Example 209, 2-Fluoro-N-(2-(2-hydroxyacetamido)-4-phenylpyrimidin-5-yl)-5-(1-methyl-1H-pyrazol-3-yl)-4-(trifluoromethyl)benzamide], which IC50 is on record?
A: 2 nM

Q: Cn1ccc(-c2cc(C(=O)Nc3cc(C(N)=O)c(N)nc3-c3ccccc3)ccc2C(F)(F)F)n1 [Example 87, 2-amino-5-(3-(1-methyl-1H-pyrazol-3-yl)-4-(trifluoromethyl)benzamido)-6-phenylnicotinamide] was tested. Which IC50 did it give?
A: 8.5 nM

— patent US9815846B2 (Merck Sharp & Dohme Corp., priority 2014, dated 2017)
